The subject of series [1] is Differentiated U937 cells. Nature of the series: MTT assay: cell viability. Type of series: cell-based, human. The note with it: 10 μg/ml. The method, then:
The supernatant was replaced with 200 μL of new media and 10 μL of MTT stock solution (5 mg/mL) was added to each well. After incubation for 1 hr the media were removed, 200 μL of DMSO was added to each well and the plates were shaken lightly for 1 hr prior to reading the absorbance at 550 nm. The percentage loss of cell viability was calculated for each well relative to vehicle (0.5% DMSO) treatment. Consequently an apparent increase in cell viability for drug treatment relative to vehicle is tabulated as a negative percentage.
For orientation: Tetrazolium assays rely on reduction of a dye to a coloured formazan, in cell work by metabolically active cells.

In series [2] the test system is LPS-induced TNFα release in THP-1 cells. Nature of the series: LPS-induced TNFα release in THP-1 cells. Type of series: cell-based. The note with it: Homo sapiens. Here is the method:
THP-1 cells, a human monocytic cell line, were stimulated with 3 μg/mL of LPS (from E. Coli; 0111:B4, Sigma) for 4 hr and the supernatant collected for determination of the TNFα concentration by sandwich ELISA (Duo-set, R&D systems). The inhibition of TNFα production was calculated at each concentration by comparison with vehicle control. The 50% inhibitory concentration (IC50) was determined from the resultant concentration-response curve.

The subject of series [3] is LPS-induced TNFα release in d-U937 cells. As to the kind of experiment: LPS-induced TNFα release in d-U937 cells. Type of series: cell-based. The conditions noted are these: Homo sapiens, dU937, 4 h. The method, then:
U937 cells, a human monocytic cell line, were differentiated to macrophage-type cells by incubation with phorbol myristate acetate (PMA; 100 ng/ml) for 48 to 72 hr. […] The supernatant was collected for determination of TNFα and IL-8 concentrations by sandwich ELISA (Duo-set, R&D systems). […] The relative 50% effective concentration (REC50) was determined from the resultant concentration-response curve. The inhibition of IL-8 production was calculated at each concentration of test compound by comparison with vehicle control.

This is an account of results in US9260410B2, “P38 MAP kinase inhibitors” (Respivert Ltd., priority 2010, dated 2016).

Structures are written as SMILES. Like-named read-outs stand apart in the source and are kept apart here.

`Cc1ccc(-n2nc(C(C)(C)C)cc2NC(=O)Nc2ccc(OCCN3CCOCC3)c3ccccc23)cc1` [BIRB796, 1-(3-tert-Butyl-1-p-tolyl-1H-pyrazol-5-yl)-3-(4-(2-morpholinoethoxy)naphthalen-1-yl)urea]: the “MTT Assay 4 h (cell viability)” value in series [1] (d-U937, 4 hr in 5% FCS) is recorded as “− (− = <30% inhibition at 10 μg/ml)”. Besides, the “MTT Assay 24 h (cell viability)” value in series [1] (d-U937, 24 h in 10% FCS) is recorded as “− (− = <30% inhibition at 10 μg/ml)”. In addition, in series [2] (THP-1 cells, 3 μg/mL LPS, 4 hr, read-out: LPS/TNFα THP-1 IC50), the IC50 turned out to be 4.1 nM. Further, the EC50 in series [3] (read-out: LPS/TNFα d-U937 REC50) worked out at 4.8 nM.

As for `CC(=O)Nc1cc(Oc2ccc(NC(=O)Nc3cc(C(C)(C)C)nn3-c3ccc(C)cc3)c3ccccc23)ccn1` [Example 3, N-(4-((4-(3-(3-(tert-Butyl)-1-(p-tolyl)-1H-pyrazol-5-yl)ureido)naphthalen-1-yl)oxy)pyridin-2-yl)acetamide], the IC50 in series [2] (THP-1, 4 h, read-out: LPS/TNFα THP-1 IC50 (nM)) came out at 1.6 nM. Further, in series [3] (read-out: LPS/TNFα d-U937 REC50 (nM)), the EC50 is 1 nM.
